# Source: PubChem BioAssay AID687023 (Broad Institute, 2013)
# “And” between values parts separate entries of the source, which are not always exact repeats. Identical values can stand only once. The source made the active and inactive calls. The rule behind the calls is not given here.
# Tested on: not listed separately
# Test: HIV Env cell-cell fusion inhibitors, dose response, HIV entry, plate reader, dry powder (AID 687023)
# Settings: Env-mediated cell-cell fusion, plate reader; at 1.2 µM (top of the series)
row,Compound,"activity change, negative = inhibition"
1,Oc1ccc(CNc2ccccc2F)c2cccnc12,33.1% (inactive)
2,Cc1noc(C)c1S(=O)(=O)Nc1cccc2c1O[C@H](CN(C)Cc1ccc(C(F)(F)F)cc1)[C@@H](C)CN([C@H](C)CO)C2=O,53.5% (inactive)
3,Cc1ccc(-c2nnc3ccc4c(C(F)(F)F)cc(C(F)(F)F)nc4n23)cc1,38.4% (inactive)

# Same assay, conditions: Env-mediated cell-cell fusion, plate reader; at 3.8 µM (top of the series)
row,Compound,"activity change, negative = inhibition"
1,CCOc1ccc(OCC)c(S(=O)(=O)NCc2ccncc2)c1,30.3% (inactive)
2,COC(=O)COc1ccc(S(=O)(=O)NCc2ccncc2)cc1,62.5% (inactive)

# Same assay, conditions: Env-mediated cell-cell fusion, plate reader; at 35 µM (top of the series)
row,Compound,"activity change, negative = inhibition"
1,COc1ccccc1CCNCc1ccc(OC)c(OCc2ccccc2)c1,-63.1% (inactive)
2,CCOc1ccc(S(=O)(=O)NCc2ccccn2)cc1,34.6% (inactive)
3,Cc1ccc(S(=O)(=O)Nc2cccc3c2O[C@@H](CN(C)Cc2ccc(Cl)c(Cl)c2)[C@@H](C)CN([C@H](C)CO)C3=O)cc1,-87.2% (inactive)
4,Cc1noc(C)c1S(=O)(=O)Nc1cccc2c1O[C@@H](CN(C)Cc1ccc(C(F)(F)F)cc1)[C@H](C)CN([C@H](C)CO)C2=O,15.3% (inactive)
5,Cc1noc(C)c1S(=O)(=O)Nc1cccc2c1O[C@@H](CN(C)Cc1ccc(C(F)(F)F)cc1)[C@H](C)CN([C@@H](C)CO)C2=O,56% (inactive)
6,Cc1ccc(C)n1-c1ccc(C(=O)O)c(O)c1,0.014% (inactive)
7,N=C1Sc2ccccc2C2=NCCCN12,2.5% (inactive)

# Tested on: Env-mediated cell-cell fusion, plate reader
# Test: as above
# Settings: not given
row,Compound,AC50
1,CC1(C)CC(NC(=O)C(=O)Nc2ccc(Cl)cc2)CC(C)(C)N1,> 70 µM (inactive) and 27.4 µM
2,CC(C)(C)c1ccc(-c2noc(CCC(=O)NCC3CCCO3)n2)cc1 (stereo unspecified),0.0954 µM and 0.484 µM
3,COc1ccc(CC(=O)Nc2cccc(S(=O)(=O)N3CCCCCC3)c2)cc1OC,3.95 µM and 1.88 µM
4,CCOc1ccc(S(=O)(=O)NC(C)c2ccncc2)cc1 (stereo unspecified),1.16 µM and 2.43 µM
5,CCCOc1ccc(S(=O)(=O)NCc2ccncc2)c2ccccc12,0.945 µM and 2.88 µM
6,O=C(CCc1ccc(S(=O)(=O)N2CCOCC2)cc1)Nc1nc(COc2ccccc2)cs1,3.51 µM and 8.07 µM
7,CCCn1nc(C(=O)Nc2ccc3nc(N4CCOCC4)sc3c2)ccc1=O,4.24 µM and 9.79 µM
8,COc1ccc(-c2nn(C)c(=O)c3ccccc23)cc1NC(=O)Cn1nc(C)c2ccccc2c1=O,4.03 µM and 23.5 µM
9,Nc1nonc1C(=O)NCCNCc1c(OCc2ccccc2F)ccc2ccccc12,9.38 µM and 3.61 µM
